Reference: PMC2759687 (Journal of medicinal chemistry, 2009)
Square brackets hold non-standard residues; d marks the D form. Peptide text beside a SMILES is read from it. Orn = NCCC[C@H](N)C(=O)O

What was measured:
Assay in all cases: Mean activity
Assay type in all cases: cell-based
fungi = settings: geometric mean of MIC values (after 24 h) against 2 fungal strains
Gram-positive bacteria = settings: geometric mean of MIC values (after 24 h) against 7 Gram-positive strains
Gram-negative bacteria = settings: geometric mean of MIC values (after 24 h) against 7 Gram-negative strains

CC(C)C[C@@H]1NC(=O)[C@H](CCCN)NC(=O)[C@H](C(C)C)NC(=O)[C@@H]2CCCN2C(=O)[C@@H](Cc2ccccc2)NC(=O)[C@H](CC(C)C)NC(=O)[C@H](CCCN)NC(=O)[C@H](C(C)C)NC(=O)[C@@H]2CCCN2C(=O)[C@@H](Cc2ccccc2)NC1=O [GS, gramicidin S] (cyclo(V[Orn]L[dF]PV[Orn]L[dF]P))
Mean activity, fungi (fungi): 2.8 µg/mL
Mean activity, Gram-positive bacteria (Gram-positive bacteria): 1.4 µg/mL
Mean Activity, Gram-negative bacteria (Gram-negative bacteria): 23.8 µg/mL
